In patent publication EP4132503B1, “PROBENECID FOR USE IN THE TREATMENT OF SARS-CO-V2 INFECTIONS” (priority 2020, dated 2021):
Where two headings read alike, the source gives them in different places.

What was measured:
[1] = test system: SARS-CoV-2 (Isolate USA-WA1/2020); assay type: cell-based; conditions: 24 h pre-treatment, compared to DMSO treated infected control
[2] = test system: SARS-CoV-2; assay type: cell-based; conditions: post-treatment, added after 1 hour infection, compared to DMSO treated infected control, Figure 3
[3] = test system: SARS-CoV-2; assay type: cell-based
[4] = test system: SARS-CoV-2; conditions: for patients converted to negative SARS-CoV-2 test (of the 10 patients enrolled): 500 mg twice daily
[5] = cited from earlier work
[6] = test system: SARS-CoV-2 (Isolate USA-WA1/2020); test: Prophylactic and therapeutic treatment of SARS-CoV-2 infected hamsters; lung viral titer (TCID50 and plaque assay)
[7] = prophylactic and therapeutic conditions, both cell types (NHBE and Vero)

Structure (SMILES): CCCN(CCC)S(=O)(=O)c1ccc(C(=O)O)cc1 [probenecid, 4-[(dipropylamino)sulfony1] benzoic acid]
- reduction in plaque formation ([1]; 0.0001µM, another experiment, 6 well plate, Figure 2): 50%
- reduction in plaque formation ([1]; 0.1µM, Vero E6, MOI 0.01, 4 days, Figure 1): 72%
- reduction in plaque formation ([1]; 5µM, Vero E6, MOI 0.01, 4 days, Figure 1): ~ 89%
- reduction in plaque formation ([1]; 5µM, another experiment, 6 well plate, Figure 2): ~ 93%
- reduction in plaque formation ([2]; 0.0001µM): 40%
- reduction in plaque formation ([2]; 5µM): ~ 90%
- IC50s compared with remdesivir [3, 7]: lower
- IC90s compared with remdesivir [3, 7]: lower
- virus plaque formation ([3]; treated prophylactically or therapeutically, compared to controls): dose-dependent decrease
- patients converted to negative SARS-CoV-2 test (of the 10 patients enrolled) ([4]; Day 4 of treatment): 2
- patients converted to negative SARS-CoV-2 test (of the 10 patients enrolled) ([4]; Day 9 of treatment): four
- patients converted to negative SARS-CoV-2 test (of the 10 patients enrolled) ([4]; Day 14 of treatment): nine
- viral shedding of SARS-CoV-2 ([4]; compared to literature pooled median of 17.2 days, all but one patient (Patient 003)): < 17.2 days
- patient symptoms ([4]; no scored grading system used, shortness of breath and loss of taste or smell persisted): showed improvement
- coagulation and inflammatory markers ([4]; with the exception of one patient (Patient 001)): mostly maintained within normal ranges
- lipid solubility [5]: highly lipid soluble
- effectiveness of the two doses compared ([6]; 2 mg and 200 mg treatment, single dose): similarly effective
- lung virus titers ([6]; day 3 post-infection, all probenecid-treated hamsters (2 or 200 mg/kg, prophylactic or therapeutic, single dose), PBS-treated 1E9+): 1E5
- lung virus ([6]; day 7 post infection): no detectable lung virus
- prophylactic compared with therapeutic treatment ([6]; hamster, in vivo): worked similarly
- decrease of lung virus titers ([6]; hamsters, compared to PBS-treated): several logs
